Test results taken from paper PMC12073189, “Synthesis and Evaluation of a Novel Zuranolone Analog with High GABAA Receptor PAM Activity and Excellent Pharmacokinetic Profiles” (Molecules, 2025).
“And” between values parts separate entries of the source, which are not always exact repeats. Identical values can stand only once. “Also recorded” adds a separate entry of the source. Like-named read-outs stand apart in the source and are kept apart here.

Assays:
[1] = Brain distribution in rats; type: in vivo, rat; conditions: i.g. 24.4 μmol/kg
Protocol: We quantified S1–S15 and Zuranolone using a UPLC-MS/MS (Agilent 1290 Infinity II UHPLC (Agilent Technologies, Santa Clara, CA, USA) coupled with a QTRAP 5500 MS/MS (ESI source) (SCIEX, Redwood City, CA, USA for MS/MS). The method assessed the content level of S9 and Zuranolone in microsome metabolism and in rat brain tissue and plasma. An ACQUITY UPLC Peptide BEH C18 column (Waters; 50 × 2.1 mm, 1.7 μm; 60 °C; Waters Corporation, Milford, MA, USA) was used with a mobile phase of 0.02% propionic acid in water (A) and acetonitrile (B). The gradient elution of the mobile phase B is carried out as follows: it is 10% from 0 to 0.5 min, 90% from 0.8 to 2.5 min, and 10% from 2.8 to 3.5 min, with a flow rate of 0.40 mL/min. Quantitative analysis was performed on a QTRAP 5500 MS (SCIEX, Redwood City, CA, USA) in positive ionization mode with MRM (multiple reaction monitoring), using progesterone-d9 as the internal standard. MRM transitions and parameters were optimized for each analyte, with collision energies of 25 V (S1–S15), 23 V (Zuranolone), and 30 V (IS), and declustering potentials of 80 V (S1–S15), 90 V (Zuranolone), and 180 V (IS). Other conditions were as follows: curtain gas 10 psi, collision gas ‘medium’, ion spray voltage 5500 V, temperature 500 °C, and ionization source gases 1 and 2 at 50 psi.
Zuranolone was solubilized in 5% DMSO with solutol HS 15 in saline. S9 was solubilized in 10% DMSA with 30% SBECD (Zibo Qianhui Biological Technology Co., Ltd., Zibo, China) in saline. After fasting for 12 h, rats (n = 6 per group) were administered Zuranolone and S9 intragastrically (i.g.) at a dose of 24.4 μmol/kg, and intravenously (i.v.) at 6.1 μmol/kg. Blood samples (200 μL) were collected into 1.5 mL tubes containing heparin at 15 min, 30 min, 1, 2, 3, 4, 6, 8, 12, 24, 48, and 96 h after i.g. or at 5, 15, 30 min, and 1, 2, 3, 4, 6, 8, 12, 24, 48, 96 h after i.v. Plasma was separated by centrifugation for 5 min (8000 rpm, 4 °C) and stored at −80 °C immediately.

[2] = target: T1, α4β3δ GABAA receptor (Homo sapiens, UniProt P28472+P48169); test: Whole-cell electrophysiology of GABA-evoked currents, CHO cells; type: cell-based
T1 construct: expressed in transfected cells; host or cells: CHO cells (transient expression)
Protocol: The α1β2γ2 and α4β3δ GABAA receptor subtypes, representing synaptic and extrasynaptic subunit compositions in neurons, are widely utilized for screening new NAS drugs. In this study, a preliminary SAR study was conducted on a series of Zuranolone analogs using the LogP values predicted by ADMETlab3.0 software, recombinant human GABAA receptor cell lines, and in vitro liver microsome stability assays. The results are summarized in Table 1, Table 2, and Table 3, respectively.
The effects of Zuranolone and synthetic analogs on GABA-evoked currents were assessed in LTK cells stably expressing α1β2γ2 GABAA receptor subunits (n = 3) or CHO cells transiently expressing α4β3δ receptors (n = 3). Whole-cell mode recordings were conducted using the HEKA EPC-10 amplifier and analyzed with PatchMaster software (version 2x90, HEKA Elektronik, Lambrecht, Germany). High-throughput whole-cell recordings were performed using the Q-Patch method from Sophion. Test substances were dissolved in DMSO (dimethyl sulfoxide) to prepare 10 mmol/L stock solutions, then diluted with perfusion bath solution to concentrations ranging from 0.01 to 10 μmol/L. In this experiment, the effects of Zuranolone and its synthetic analogs on GABA-induced currents were examined in the presence of a submaximal agonist concentration at 1 μmol/L GABA (EC20). Cells were pre-incubated with increasing doses of test substances for 30 s, followed by 2 s of GABA stimulation, and currents were recorded. The maximum efficacy (Emax) of the GABAA receptor is expressed with the current induced by 1 μmol/L GABA taken as 100%, and the percentage after treatment with the test compound is calculated. The EC50 values are determined by fitting the three concentration–response curves recorded from three cells.

[3] = system: PTZ-induced acute seizures; test: Pentylenetetrazole (PTZ)-induced seizure test; type: in vivo, rat; conditions: rats; for effect on seizure incidence: oral 6, 12, 24 μmol/kg, PTZ 50 mg/kg; for latency to tonic seizures: n = 6
Protocol: PTZ can trigger dose-dependent tonic seizures through its antagonistic effects on GABAA receptor function. To evaluate target engagement at GABAA receptors, Zuranolone and S9 were tested in a PTZ-induced acute seizure model in rats, which is widely used to assess GABAergic activity. Based on their pharmacokinetic study results, S9 or Zuranolone was administered orally at the same doses (6, 12, and 24 μmol/kg) 1 h prior to PTZ challenge.
We randomly divided rats into 7 groups (n = 6): three same-dose groups for both Zuranolone and S9 (6, 12, 24 μmol/kg) and a vehicle control group (30% SBECD). PTZ can selectively antagonize the GABAA receptors at a dose below 60 mg/kg, while higher doses lead to non-competitive antagonism of GABAA receptors and activation of NMDA receptors. Thus, a dose of 50 mg/kg was applied in this experiment. After intragastric administration of the test drugs or vehicle for 1 h, the animals were injected intraperitoneally with PTZ saline solution at 50 mg/kg. The rats were then placed in observation chambers to monitor the latency of clonic seizures (seizures lasting ≥3 s with LORR) and tonic seizures (the rigid extension of limbs, forming an angle of more than 90° with the body plane) within 1 h.

T1 sequence (P48169 36-554): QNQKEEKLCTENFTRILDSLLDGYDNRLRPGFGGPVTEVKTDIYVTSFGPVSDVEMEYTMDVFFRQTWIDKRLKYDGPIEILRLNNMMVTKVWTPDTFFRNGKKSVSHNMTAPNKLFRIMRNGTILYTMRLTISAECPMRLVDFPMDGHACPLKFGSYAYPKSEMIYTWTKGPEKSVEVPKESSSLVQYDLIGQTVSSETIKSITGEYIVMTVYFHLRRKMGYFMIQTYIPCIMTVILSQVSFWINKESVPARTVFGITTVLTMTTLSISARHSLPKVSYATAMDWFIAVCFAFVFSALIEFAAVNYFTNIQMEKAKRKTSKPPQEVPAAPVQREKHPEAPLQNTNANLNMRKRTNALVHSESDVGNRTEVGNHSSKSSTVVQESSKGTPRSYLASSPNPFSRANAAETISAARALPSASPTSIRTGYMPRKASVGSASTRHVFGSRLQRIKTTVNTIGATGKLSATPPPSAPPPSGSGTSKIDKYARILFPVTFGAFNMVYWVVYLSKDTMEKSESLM
T1 sequence (P28472 26-473): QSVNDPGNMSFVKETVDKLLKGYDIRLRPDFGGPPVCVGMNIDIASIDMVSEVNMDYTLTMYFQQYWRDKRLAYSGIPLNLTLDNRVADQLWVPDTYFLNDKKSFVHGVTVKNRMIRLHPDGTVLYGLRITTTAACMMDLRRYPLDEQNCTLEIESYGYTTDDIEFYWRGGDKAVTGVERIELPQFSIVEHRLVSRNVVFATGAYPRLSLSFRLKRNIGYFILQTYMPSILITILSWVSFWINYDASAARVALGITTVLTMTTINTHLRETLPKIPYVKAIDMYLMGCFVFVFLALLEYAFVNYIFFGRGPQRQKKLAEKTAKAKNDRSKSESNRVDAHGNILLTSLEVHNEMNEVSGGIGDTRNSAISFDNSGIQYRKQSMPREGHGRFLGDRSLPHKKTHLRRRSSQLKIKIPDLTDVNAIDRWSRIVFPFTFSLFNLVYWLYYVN
T1 sequence (O14764 25-452 partner): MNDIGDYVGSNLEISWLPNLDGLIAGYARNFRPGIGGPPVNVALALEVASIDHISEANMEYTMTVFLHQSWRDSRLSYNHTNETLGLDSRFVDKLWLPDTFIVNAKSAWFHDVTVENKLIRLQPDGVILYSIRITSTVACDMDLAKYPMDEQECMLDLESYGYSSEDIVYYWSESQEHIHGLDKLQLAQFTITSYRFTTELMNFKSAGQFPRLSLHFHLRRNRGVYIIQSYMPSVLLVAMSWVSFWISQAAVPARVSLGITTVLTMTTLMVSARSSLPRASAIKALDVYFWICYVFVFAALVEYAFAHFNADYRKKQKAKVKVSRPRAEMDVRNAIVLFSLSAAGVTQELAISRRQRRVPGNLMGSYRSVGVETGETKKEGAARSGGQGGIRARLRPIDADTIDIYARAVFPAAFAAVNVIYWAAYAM

C[C@@]1(O)CC[C@H]2[C@H](CC[C@@H]3[C@@H]2CC[C@]2(C)[C@@H](C(=O)Cn4cnn(-c5ccnc(OCC(F)(F)F)c5)c4=O)CC[C@@H]32)C1 [S9]
AUCBrain 0–t [1]: 30,969 nmol/kg·h and 30,969 ± 8450 nmol/kg·h
F AUCBrain 0–t S9/Zuranolone (relative brain bioavailability) [1]: 324%
Brain concentration ([1]; 0.5 h): 189 nmol/kg and 189 ± 30 nmol/kg
Brain concentration ([1]; 2 h): 1895 ± 593 nmol/kg
Brain concentration ([1]; 6 h): 2132 nmol/kg and 2132 ± 683 nmol/kg
Brain concentration ([1]; 24 h): 175 nmol/kg and 175 ± 35 nmol/kg
EC50 ([2]; CHO cells, 1 μmol/L GABA (EC20), n = 3, read-out: α4β3δ EC50): 34 ± 10 nM
Emax ([2]; CHO cells, current induced by 1 μmol/L GABA = 100%, n = 3): 967 ± 118%
efficacy as % of that of Zuranolone ([2]; extrasynaptic GABAA receptors): 71%
potency as % of that of Zuranolone ([2]; extrasynaptic GABAA receptors): 270%
effect on seizure incidence [3]: neither compound significantly affected seizure incidence

C[C@@]1(O)CC[C@H]2[C@H](CC[C@@H]3[C@@H]2CC[C@]2(C)[C@@H](C(=O)Cn4cc(C#N)cn4)CC[C@@H]32)C1 [Zuranolone]
AUCBrain 0–t [1]: 9549 nmol·h/kg and 9549 ± 2529 nmol·h/kg
Brain concentration ([1]; 0.5 h): 3103 nmol/kg and 3103 ± 795 nmol/kg
Brain concentration ([1]; 2 h): 2220 ± 574 nmol/kg
Brain concentration ([1]; 6 h): 193 nmol/kg and 193 ± 56 nmol/kg
Brain concentration ([1]; 24 h): below the quantification limit (BQL); also recorded: BQL ^b
EC50 [2]: 93 ± 10 nM
latency to tonic seizures ([3]; oral 12 μmol/kg 1 h before PTZ 50 mg/kg i.p.): 1748.0 ± 555.0 s
latency to tonic seizures ([3]; oral 24 μmol/kg 1 h before PTZ 50 mg/kg i.p.): 2995.0 ± 430.6 s
effect on seizure incidence [3]: neither compound significantly affected seizure incidence
